From patent US7534769B2, “Compositions and methods for enhancing delivery of therapeutic agents to cells” (Canji, Inc., priority 1996, dated 2009) come the findings set out here.

The test system of data set [1] is bladder epithelium. The data set is described as follows: rAd-βgal gene transfer to bladder epithelium in detergent formulations, Xgal staining score and gross pathology. As to conditions: detergents at their critical micellization concentration. As for the experimental part: rAd-βgal was formulated in different detergents at their critical micellization concentration to evaluate efficiency of gene transfer to the bladder epithelium. Female rats (about 200 g b/w, Harlan Sprague Dawley) were anesthetized with isoflurane and received a single intravesical administration of rAd-βgal (1×10^11 PN/ml) in different detergent formulations (see Table I). Before instillation, bladders were flushed with PBS and then emptied. rAd-βgal was then instilled in a volume of 0.5 ml. The instilled solution was retained in the bladder for 45 minutes. The bladders were then flushed with PBS, and the animals were permitted to recover from the procedure. 48 hours after administration, the rats were sacrificed, the bladders harvested, and fixed in formalin. After fixation, the bladders were opened longitudinally so that the urothelium was exposed to the chromogen (Xgal), that is converted to a blue color, if reporter gene (β-galactosidase) expression is present. The luminal epithelial surface of the whole bladder was photographed an blue staining scored: + (minimal staining), ++ (moderate staining), +++ intense staining covering the whole bladder epithelial surface.
Briefly, in anaesthetized female rats rAd-βgal (1×10^11 PN/ml) was administered into the bladder via an intravesical catheter. rAd-βgal was formulated in different concentrations of Big CHAP (CALBIOCHEM®). A volume of 0.5 ml was injected and remained instilled in the bladder for 45 minutes. The animals were sacrificed 48 hours later, the bladder fixed in 4% formalin/glutaraldehyde, opened longitudinally, and the β-galactosidase enzyme activity measured using Xgal substrate. The intensity of blue staining correlates with the βgal-transgene expression.
Effects of higher recombinant adenovirus concentrations were also tested. Briefly, in anaesthetized female rats different concentrations of rAd-βgal, formulated in 7 mM Big CHAP (CALBIOCHEM®) were administered into the bladder via an intravesical catheter. The animals were sacrificed 48 hours later, the bladder fixed in 4% formalin/glutaraldehyde, opened longitudinally, and Xgal stained.

In data set [2] the test system is bladder epithelium. The data set is described as follows: Effect of Big CHAP sources, purified Big CHAP and impurities on rAd-βgal gene transfer to bladder epithelium. The data set is classed as in vivo, rat. The conditions noted are these: for rAd mediated gene transfer and expression: Big CHAP at 6 mg/ml; for epithelial gene expression: increasing concentrations of BC (Sigma), 20 mg/ml; for cystitis / bladder irritation: Impurity I; for gene transfer and expression: column chromatography purified BC, 30 mg/ml. As for the experimental part:
Alternate commercial sources of Big CHAP (BC) were tested for the ability to enhance rAd (recombinant adenovirus) mediated gene transfer and expression, essentially according to the method described above in Example 8.
The results are depicted in FIG. 17.
rAd-βgal was formulated in 30 mg/ml of the column chromatography purified material of both BCs and gene transfer to the bladder epithelium tested as described above.
Three impurities of BC (CALBIOCHEM®) were detected by TLC (FIG. 15) and isolated by column chromatography for gene transfer studies. Impurity I and a mixture of impurity II and impurity III were diluted in VPBS (0.6 mg/ml or 6 mg/ml) to test their efficiency in improving rAd mediated gene transfer to the bladder epithelium. […] Positive control formulation (BC, CALBIOCHEM®, upper panel, left), and the negative control formulations (BC—CALBIOCHEM®, column chromatography purified and BC—Sigma) were used at a concentration of 6 mg/ml (upper panel, right).
In this experiment, 10 mg/ml of BC (Sigma, FIG. 20 upper middle panel) was reconstituted with Impurity III (upper right panel), impurity II (lower left panel), or synthesized analog of impurity III (lower right panel). rAd-βgal, 1×10^11 PN/ml, was prepared in the spiked formulations and administered intravesically as described above.
Calbiochem Big CHAP was fractionated by column chromatography to obtain essentially pure impurities “1”, “2”, and “3” for biological testing as well as structural analysis.

Data set [3] in a line: Solubility and dissolution behaviour. The class given is physicochemical.

Entries after “also recorded” stand apart in the source; their conditions may differ.

As to `C[C@H](CCC(=O)NCCC[N+](C)(C)CCCS(=O)(=O)[O-])[C@H]1CC[C@H]2[C@@H]3[C@H](O)C[C@@H]4C[C@H](O)CC[C@]4(C)[C@H]3C[C@H](O)[C@]12C.O` [Chaps, 3-[(3-Cholamidopropyl)dimethylammoniol]-1-propanesulfonate hydrate, reference compound], the “gene transfer to the bladder epithelium (Table I)” value (from here on “gene transfer … (Table I)”) in data set [1] is “enhanced gene transfer dramatically”.
On to `C[C@H](CCC(=O)N(CCCNC(=O)[C@H](O)[C@@H](O)[C@H](O)[C@H](O)CO)CCCNC(=O)[C@H](O)[C@@H](O)[C@H](O)[C@H](O)CO)[C@H]1CC[C@H]2[C@@H]3[C@H](O)C[C@@H]4C[C@H](O)CC[C@]4(C)[C@H]3C[C@H](O)[C@]12C` [Big CHAP (Sigma), N,N,bis-(3-D-gluconamidopropyl)-cholamide], for which the gene transfer entry in data set [2] (26 mg/ml) is “found to enhance gene transfer”. The “rAd mediated gene transfer and expression” value in data set [2] (listed as BC—Sigma) is reported as “did not markedly improve rAd mediated gene transfer”; in data set [2] (listed as Sigma Big CHAP), “does not enhance gene transfer”. In addition, the epithelial gene expression result is recorded as “enhanced gene transfer at higher concentrations” in data set [2] and “improved epithelial gene expression” in data set [2] (listed as Sigma BC).
Take `COC(=O)CC[C@@H](C)[C@H]1CC[C@H]2[C@@H]3[C@H](O)C[C@@H]4C[C@H](O)CC[C@]4(C)[C@H]3C[C@H](O)[C@]12C` [Impurity I]: the “cystitis / bladder irritation” value is listed as “caused cystitis” in data set [2] and “bladder irritation” in data set [2] (listed as Impurity 1). The “β-galactosidase gene expression in the bladder epithelium” value in data set [2] (impurities diluted in VPBS, 0.6 mg/ml or 6 mg/ml) was “did not lead to increased β-galactosidase gene expression”.
`C[C@H](CCC(=O)N(CCCNC(=O)[C@H](O)[C@@H](O)[C@H](O)[C@H](O)CO)CCCNC(=O)[C@H](O)[C@@H](O)[C@H](O)[C@H](O)CO)[C@H]1CC[C@H]2[C@@H]3[C@H](O)C[C@@H]4C[C@H](O)CC[C@]4(C)[C@H]3C[C@H](O)[C@]12C` [purified Big CHAP (Sigma)]: the “gene transfer and expression” value in data set [2] is given as “reduced ability to enhance gene transfer”; in data set [2] (listed as purified Sigma BC), “without any effect”.
Regarding Pluronic F68 [reference compound], the “gene transfer … (Table I)” value in data set [1] is “did not have similar effects”.
On to `C[C@H](CCC(=O)N(CCCNC(=O)[C@H](O)[C@@H](O)[C@H](O)[C@H](O)CO)CCCNC(=O)[C@H](O)[C@@H](O)[C@H](O)[C@H](O)CO)[C@H]1CC[C@H]2[C@@H]3[C@H](O)C[C@@H]4C[C@H](O)CC[C@]4(C)[C@H]3C[C@H](O)[C@]12C` [Big CHAP, N,N,bis-(3-D-gluconamidopropyl)-cholamide, reference compound], for which the “solubility in water / aqueous solutions (in words)” value in data set [3] is “highly water soluble”.
Consider `C[C@H](CCC(=O)N(CCCNC(=O)[C@H](O)[C@@H](O)[C@H](O)[C@H](O)CO)CCCNC(=O)[C@H](O)[C@@H](O)[C@H](O)[C@H](O)CO)[C@H]1CC[C@H]2[C@@H]3[C@H](O)C[C@@H]4C[C@H](O)CC[C@]4(C)[C@H]3C[C@H](O)[C@]12C` [purified Big CHAP (CALBIOCHEM®)], for which, in data set [2], the “gene transfer and expression” value is on record as “only slightly enhanced; also recorded: reduced ability to enhance gene transfer”.
On to `C[C@H](CCC(=O)NCCS(=O)(=O)O)[C@H]1CC[C@H]2[C@@H]3CC[C@@H]4C[C@H](O)CC[C@]4(C)[C@H]3C[C@H](O)[C@]12C` [Taurodeoxycholate, reference compound], for which the “gene transfer … (Table I)” value in data set [1] is reported as “enhanced gene transfer dramatically”.
Still for that read-out and setting: the result for `CCCCCCCCCCCCCC[N+](C)(C)CCCS(=O)(=O)[O-]` [Zwittergent ® 3-14, reference compound] reads “enhanced gene transfer dramatically”.
